This passage reports TGI results from PubChem BioAssay (NCI).

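Dose response: 5 concentrations. Exposure: 48 h. Format: 96-well plates. Endpoint: linear interpolation; highest concentration if not reached. Definition used: TGI = concentration required for complete inhibition of growth.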

One assay has as its system SK-MEL-2 melanoma. The assay is described as follows: NCI tumour cell line growth inhibition, 48 h.
For the molecule `O=C(Nc1c(O)[nH]c(=S)[nH]c1=O)c1ccco1`, the TGI was above 100 µM.

In a further assay the test system is SK-MEL-28 melanoma. The assay is described as follows: NCI tumour cell line growth inhibition, 48 h.
For `CC1(C)S[C@H](c2ccccc2C(=O)O)N[C@@H]1CC(=O)O`, the TGI was above 100 µM.
On to `CCc1cccc(C)c1NC(=O)CCc1n[nH]c(=S)o1`, for which the TGI was above 100 µM.
`COC1CC(Br)(C#N)C1` (stereo not drawn) had a TGI above 100 µM.
`O=C(Nc1c(O)[nH]c(=S)[nH]c1=O)c1ccco1` displayed a TGI above 100 µM.

Another assay concerns SK-MEL-5 melanoma. Briefly: NCI tumour cell line growth inhibition, 48 h.
`CC1(C)S[C@H](c2ccccc2C(=O)O)N[C@@H]1CC(=O)O`: the TGI was above 100 µM.
The same measure, in the same setting: as for `CCc1cccc(C)c1NC(=O)CCc1n[nH]c(=S)o1`, the figure is above 100 µM; as for `COC1CC(Br)(C#N)C1` (stereo not drawn), above 100 µM.
For `O=C(Nc1c(O)[nH]c(=S)[nH]c1=O)c1ccco1`, the TGI was above 100 µM.

The test system of another assay is SK-OV-3 ovarian. Briefly: NCI tumour cell line growth inhibition, 48 h.
Consider `CCc1cccc(C)c1NC(=O)CCc1n[nH]c(=S)o1`, for which the TGI is above 100 µM.
`COC1CC(Br)(C#N)C1` (stereo not drawn) showed a TGI above 100 µM.
`O=C(Nc1c(O)[nH]c(=S)[nH]c1=O)c1ccco1` returned a TGI above 100 µM.

The test system of another assay is SN12C renal. The assay is described as follows: NCI tumour cell line growth inhibition, 48 h.
On to `CC1(C)S[C@H](c2ccccc2C(=O)O)N[C@@H]1CC(=O)O`, for which the TGI is above 100 µM.
For `CCc1cccc(C)c1NC(=O)CCc1n[nH]c(=S)o1`, the TGI is above 100 µM.
On the same count and under the same terms, as for `O=C(Nc1c(O)[nH]c(=S)[nH]c1=O)c1ccco1`, the figure is above 100 µM.

The subject of a further assay is SNB-19 CNS. The assay is described as follows: NCI tumour cell line growth inhibition, 48 h.
As to `CC1(C)S[C@H](c2ccccc2C(=O)O)N[C@@H]1CC(=O)O`, the TGI was above 100 µM.
`CCc1cccc(C)c1NC(=O)CCc1n[nH]c(=S)o1` showed a TGI above 100 µM.
For `O=C(Nc1c(O)[nH]c(=S)[nH]c1=O)c1ccco1`, the TGI was above 100 µM.

The test system of another assay is SNB-75 CNS. The assay is described as follows: NCI tumour cell line growth inhibition, 48 h.
On to `CC1(C)S[C@H](c2ccccc2C(=O)O)N[C@@H]1CC(=O)O`, for which the TGI is above 100 µM.
With `CCc1cccc(C)c1NC(=O)CCc1n[nH]c(=S)o1`, the TGI was above 100 µM.
On the same count and under the same terms, as for `O=C(Nc1c(O)[nH]c(=S)[nH]c1=O)c1ccco1`, the figure is above 100 µM.

For another assay, the system named is SNB-78 CNS. The assay is described as follows: NCI tumour cell line growth inhibition, 48 h.
Regarding `CC1(C)S[C@H](c2ccccc2C(=O)O)N[C@@H]1CC(=O)O`, the TGI was above 100 µM.
`CCc1cccc(C)c1NC(=O)CCc1n[nH]c(=S)o1` displayed a TGI above 100 µM.
For `COC1CC(Br)(C#N)C1` (stereo not drawn), the TGI is above 100 µM.
Still for that read-out and setting: as for `O=C(Nc1c(O)[nH]c(=S)[nH]c1=O)c1ccco1`, the figure is above 100 µM.

The subject of another assay is SR leukemia. The assay is described as follows: NCI tumour cell line growth inhibition, 48 h.
As for `CC1(C)S[C@H](c2ccccc2C(=O)O)N[C@@H]1CC(=O)O`, the TGI is above 100 µM.
As to `COC1CC(Br)(C#N)C1` (stereo not drawn), the TGI is above 100 µM.
Regarding `O=C(Nc1c(O)[nH]c(=S)[nH]c1=O)c1ccco1`, the TGI is above 100 µM.

In another assay the test system is SW-620 colon. Briefly: NCI tumour cell line growth inhibition, 48 h.
In turn, `CC1(C)S[C@H](c2ccccc2C(=O)O)N[C@@H]1CC(=O)O` had a TGI above 100 µM.
Same read-out and setting: as for `CCc1cccc(C)c1NC(=O)CCc1n[nH]c(=S)o1`, the figure is 28 µM; as for `O=C(Nc1c(O)[nH]c(=S)[nH]c1=O)c1ccco1`, above 100 µM.

In a further assay the test system is TK-10 renal. The assay is described as follows: NCI tumour cell line growth inhibition, 48 h.
As to `CCc1cccc(C)c1NC(=O)CCc1n[nH]c(=S)o1`, the TGI was above 100 µM.
The molecule `COC1CC(Br)(C#N)C1` (stereo not drawn) showed a TGI above 100 µM.
Turning to `O=C(Nc1c(O)[nH]c(=S)[nH]c1=O)c1ccco1`, the TGI was above 100 µM.

The subject of another assay is U251 CNS. Briefly: NCI tumour cell line growth inhibition, 48 h.
`CC1(C)S[C@H](c2ccccc2C(=O)O)N[C@@H]1CC(=O)O` showed a TGI above 100 µM.
Still for that read-out and setting: then `CCc1cccc(C)c1NC(=O)CCc1n[nH]c(=S)o1`, with above 100 µM; and `COC1CC(Br)(C#N)C1` (stereo not drawn), with above 100 µM; and `O=C(Nc1c(O)[nH]c(=S)[nH]c1=O)c1ccco1`, with above 100 µM.

Another assay has as its system UACC-257 melanoma. The assay is described as follows: NCI tumour cell line growth inhibition, 48 h.
Take `CC1(C)S[C@H](c2ccccc2C(=O)O)N[C@@H]1CC(=O)O`: the TGI was above 100 µM.
`CCc1cccc(C)c1NC(=O)CCc1n[nH]c(=S)o1` came in with a TGI above 100 µM.
The same measure, in the same setting: then `O=C(Nc1c(O)[nH]c(=S)[nH]c1=O)c1ccco1`, with above 100 µM.

The next assay has as its system UACC-62 melanoma. Briefly: NCI tumour cell line growth inhibition, 48 h.
`CC1(C)S[C@H](c2ccccc2C(=O)O)N[C@@H]1CC(=O)O` returned a TGI above 100 µM.
`CCc1cccc(C)c1NC(=O)CCc1n[nH]c(=S)o1` yielded a TGI above 100 µM.
Still for that read-out and setting: then `COC1CC(Br)(C#N)C1` (stereo not drawn), with above 100 µM.
Same read-out and setting: as for `O=C(Nc1c(O)[nH]c(=S)[nH]c1=O)c1ccco1`, the figure is above 100 µM.

A further assay relates to UO-31 renal. Briefly: NCI tumour cell line growth inhibition, 48 h.
Regarding `CCc1cccc(C)c1NC(=O)CCc1n[nH]c(=S)o1`, the TGI is above 100 µM.
Molecule `COC1CC(Br)(C#N)C1` (stereo not drawn) yielded a TGI above 100 µM.
Same read-out and setting: as for `O=C(Nc1c(O)[nH]c(=S)[nH]c1=O)c1ccco1`, the figure is above 100 µM.
